In patent US20190337889A1, “COMPOSITIONS AND METHODS OF REGULATING CANCER RELATED DISORDERS AND DISEASES” (ONCO THERAPIES LLC, priority 2016, published 2019):

Tests used:
HepG2 cells [1] = assay: XTT cell death assay, HepG2 hepatocarcinoma cells; assay type: cell-based, human; settings: dilutions 0.01 nM to 200 μM, usually 24 or 48 hours; for minimal effective concentration: Homo sapiens, HepG2, *Greater than 50% inhibition, read-out: HepG2* (liver cancer): concentration with greater than 50% inhibition
Description: (§1) Maintenance and Treatment of Cell Lines. Human HepG2 hepatocarcinoma cells and human U87MG glioma cells (ATCC, Manassas, Va.) were maintained in EMEM medium supplemented with 10% FBS (Hyclone, Logan, Utah). The human 1321N1 astrocytoma cells (European Collection of Cell Cultures, Sigma-Aldrich) were cultured in Dulbecco's modified Eagle's medium supplemented with 10% FBS and 2 mM L-glutamine. Human prostate carcinoma cell line PC3 was cultured in F-12K medium (Life Technologies) supplemented 10% FBS. Human lung carcinoma cell line A549 was cultured in DMEM+2 mM glutamine+10% FBS. ER positive, estrogen independent for growth MCF7/LCC9 cell line was cultured in IMEM (Biofluids) supplemented with 5% charcoal stripped calf serum. Medulloblastoma cell line DAOY was cultured in Eagle's MEM supplemented with 10% FBS.
(§2) Cell death assay. The extent of cell death and toxicity of the compounds was tested by XTT assay. The cells were plated in their respective media in 96-well plates. The compounds and were added in dilutions ranging from 0.01 nM to 200 μM and for control DMSO to 1% was used. […] For XTT assay first the medium in the wells was replaced with 200 μs of fresh phenol-red free medium. Then 50 μls of XTT solution with PMS was added to the wells. The XTT solution was made adding 0.02% phenazine methosulfate (Sigma-Aldrich #P9625) to 1 mg/ml XTT sodium salt made up in phenol-red free RPMI (Sigma-Aldrich #X4636).

1321N1 cells = assay: XTT cell death assay, 1321N1 astrocytoma cells; assay type: cell-based; settings: Homo sapiens, *Greater than 50% inhibition, dilutions 0.01 nM to 200 μM, usually 24 or 48 hours, read-out: 1321N* (brain cancer): concentration with greater than 50% inhibition
Description: as §1, §2

MCF7/LCC9 cell line = assay: XTT cell death assay, MCF7/LCC9 cells; assay type: cell-based; settings: Homo sapiens, # = 200 uM not tested, read-out: LCC-9: concentration with effect on cancer cells
Description: (§3) Maintenance and Treatment of Cell Lines. Human HepG2 hepatocarcinoma cells and human U87MG glioma cells (ATCC, Manassas, Va.) were maintained in EMEM medium supplemented with 10% FBS (Hyclone, Logan, Utah). The human 1321N1 astrocytoma cells (European Collection of Cell Cultures, Sigma-Aldrich) were cultured in Dulbecco's modified Eagle's medium supplemented with 10% FBS and 2 mM L-glutamine. Human prostate carcinoma cell line PC3 was cultured in F-12K medium (Life Technologies) supplemented 10% FBS. Human lung carcinoma cell line A549 was cultured in DMEM+2 mM glutamine+10% FBS. ER positive, estrogen independent for growth MCF7/LCC9 cell line was cultured in IMEM (Biofluids) supplemented with 5% charcoal stripped calf serum. Medulloblastoma cell line DAOY was cultured in Eagle's MEM supplemented with 10% FBS. All cell lines except […] were cultured at 37° C. in 5% CO2, and the medium was replaced every 2-3 days. MDA-MB-231 was grown in Leibovitz's L-15 medium with 10% FBS without CO2 supplementation.
as §2, with “#X4636). The plate was incubated for 4 hours at 37° C. and then the absorbance was read at a wavelength of 490 nm.” for “#X4636).”

MDA-MB-231 = assay: XTT cell death assay, MDA-MB-231 cells; assay type: cell-based; settings: Homo sapiens, # = 200 uM not tested, read-out: MDA-MB-231: concentration with effect on cancer cells
Description: as §3
as §2, with “#X4636). The plate was incubated for 4 hours at 37° C. and then the absorbance was read at a wavelength of 490 nm.” for “#X4636).”

DAOY = assay: XTT cell death assay, DAOY medulloblastoma cells; assay type: cell-based; settings: Homo sapiens, # = 200 uM not tested, read-out: DAOY: concentration with effect on cancer cells
Description: as §3
as §2, with “#X4636). The plate was incubated for 4 hours at 37° C. and then the absorbance was read at a wavelength of 490 nm.” for “#X4636).”

A549 = assay: XTT cell death assay, A549 lung carcinoma cells; assay type: cell-based; settings: Homo sapiens, # = 200 uM not tested, read-out: A549: concentration with effect on cancer cells
Description: as §3
as §2, with “#X4636). The plate was incubated for 4 hours at 37° C. and then the absorbance was read at a wavelength of 490 nm.” for “#X4636).”

PC3 cells = assay: XTT cell death assay, PC3 prostate carcinoma cells; assay type: cell-based; settings: Homo sapiens, PC-3, # = 200 uM not tested, read-out: PC3: concentration with effect on cancer cells
Description: as §3
as §2, with “#X4636). The plate was incubated for 4 hours at 37° C. and then the absorbance was read at a wavelength of 490 nm.” for “#X4636).”

HepG2 cells [2] = assay: Caspase assay (Caspase-Glo 3/7) on HepG2 cells; assay type: cell-based, human; settings: n=4; for caspase activity (fluorescence ratio to untreated cells): 48 hours after addition, 100 uM
Description: Caspase Assay. Caspase assay was conducted by using the Promega Caspase-Glo 3/7 kit. 100 ul of caspase-Glo 3/7 reagent was added to each well of a white walled 96-well plate containing 100 ul of blank, negative control cells or treated cells in culture medium. The contents of the wells were mixed gently and incubated at room temperature for 30 minutes to 3 hours. The luminescence of each sample was read in a luminometer.

A549 xenograft = assay: Zebrafish xenograft assay with implanted A549 cells; assay type: in vivo; settings: zebrafish embryos, 100 uM, 4 days after implantation, n=10 to 15
Description: Zebrafish xenograft assay. Zebrafish embryos with implanted A549 cells were imaged within 6 hours of cell injection (day 0) and treated with compounds. At 4 days post injection (day 4) the embryos were imaged again. The area of fluorescence due to the labeled cells was measured using Image J at day 0 (area 0) and day 4 (area 4). The change in area was calculated by subtracting area 0 from area 4 (=d area). D area was then normalized for the size of the initial tumor by dividing d area by area 0 (=d area/area 0).

Structure (SMILES)	minimal effective concentration (HepG2 cells [1]) [µM]	minimal effective concentration (1321N1 cells) [µM]	minimal effective concentration (MCF7/LCC9 cell line) [µM]	minimal effective concentration (MDA-MB-231) [µM]	minimal effective concentration (DAOY) [µM]	minimal effective concentration (A549) [µM]	minimal effective concentration (PC3 cells) [µM]	caspase activity (fluorescence ratio to untreated cells) (HepG2 cells [2])	caspase activation (fluorescence ratio to untreated cells) (HepG2 cells [2]; 48 hours, control compound at 10 uM)	area of A549 xenograft implant (A549 xenograft)	HepG2* (liver cancer): concentration with greater than 50% inhibition (HepG2 cells [1])
CC(N)c1cccc2ccccc12 (stereo not drawn) [NT009]	100	100	–	–	–	–	–	–	–	–	–
Cc1ccc(CC(C)NCCc2ccc(O)cc2)c2ccccc12 (stereo not drawn) [NT034]	200	–	100	100	–	–	–	–	–	–	–
CC(Cc1ccc2ccccc2c1)NCCc1ccc(O)cc1 (stereo not drawn) [NT021, 4-(2-((1-(naphthalen-2-yl)propan-2-yl)amino)ethyl)phenol]	200	–	100	100	100	100	200	–	–	–	–
COc1ccc2cc(C(C)N)ccc2c1 (stereo not drawn) [NT011]	200	200	–	–	–	–	–	–	–	–	–
CC(Cc1cccc2ccccc12)NCC(O)c1ccc(O)cc1 (stereo not drawn) [NT019]	100	–	–	–	100	100	100	increase in caspase activity	–	–	–
C[C@H](CCC(=O)O)C[C@H](C)C[C@H](C)C(=O)/C=C(\O)[C@H](C)C[C@H](C)C/C=C/[C@@H](C)[C@@H](O)[C@@H](C)[C@@H](O)C[C@@H]1CC[C@@](C)([C@H]2CC[C@@](C)([C@@H](C)O)O2)O1 [ionomycin, reference compound]	–	–	–	–	–	–	–	–	did not show an increase in caspase activation	–	–
CC(Cc1cccc2ccccc12)NCC(O)c1ccc(O)cc1 (stereo not drawn) [NT027, 4-(1-hydroxy-2-((1-(naphthalen-1-yl)propan-2-yl)amino)ethyl)phenol]	–	–	100	100	–	–	–	increase in caspase activity	–	efficacy of reducing the area of xenograft significantly	–
Cc1ccc(CC(C)NCC(O)c2cccc(O)c2)c2ccccc12 (stereo not drawn) [NT037, 3-(1-hydroxy-2-((1-(4-methylnaphthalen-1-yl)propan-2-yl)amino)ethyl)phenol]	–	–	100	100	100	100	–	–	–	–	–
CC(Cc1cccc2ccccc12)Nc1ccc(O)cc1 (stereo not drawn) [NT017, 4-((1-(naphthalen-1-yl)propan-2-yl)amino)phenol]	–	100	–	–	100	100	100	–	–	–	No effect
CC(Cc1cccc2ccccc12)NCC(O)c1ccccc1O (stereo not drawn) [NT029, 2-(1-hydroxy-2-((1-(naphthalen-1-yl)propan-2-yl)amino)ethyl)phenol]	100	–	100	–	100	100	200	–	–	efficacy of reducing the area of xenograft significantly	–
CC(N)c1ccc2ccccc2c1 (stereo not drawn) [NT010]	200	200	–	–	–	–	–	–	–	–	–
O=C(O)c1cc(O)c(O)c(O)c1 [NT003]	200	200	–	–	–	–	–	–	–	–	–
Cc1ccc(CC(C)NCC(O)c2ccc(O)cc2)c2ccccc12 (stereo not drawn) [NT039, 4-(1-hydroxy-2-((1-(4-methylnaphthalen-1-yl)propan-2-yl)amino)ethyl)phenol]	–	–	100	–	100	100	–	–	–	efficacy of reducing the area of xenograft significantly	–
CC(Cc1ccc2ccccc2c1)Nc1ccc(O)cc1 (stereo not drawn) [NT018, 4-((1-(naphthalen-2-yl)propan-2-yl)amino)phenol]	200	100	–	–	100	100	100	–	–	–	–
CC(Cc1ccc2ccccc2c1)NCC(O)c1ccccc1O (stereo not drawn) [NT030, 2-(1-hydroxy-2-((1-(naphthalen-2-yl)propan-2-yl)amino)ethyl)phenol]	100	–	100	100	100	100	100	–	–	–	–
Cc1ccc(CC(C)NCC(O)c2ccccc2)c2ccccc12 (stereo not drawn) [NT038, 2-((1-(4-methylnaphthalen-1-yl)propan-2-yl)amino)-1-phenylethan-1-ol]	–	–	100	100	100	100	–	–	–	–	–
CC(Cc1ccc2ccccc2c1)NCC(O)c1cccc(O)c1 (stereo not drawn) [NT023, 3-(1-hydroxy-2-((1-(naphthalen-2-yl)propan-2-yl)amino)ethyl)phenol]	100	–	100	100	100	100	100	–	–	–	–
CC(Cc1ccc2ccccc2c1)NCC(O)c1ccccc1 (stereo not drawn) [NT020, 2-((1-(naphthalen-2-yl)propan-2-yl)amino)-1-phenylethan-1-ol]	100	–	100	100	100	100	100	–	–	–	–
CC(Cc1ccc2ccccc2c1)NCC(O)c1ccc(O)cc1 (stereo not drawn) [NT026, 4-(1-hydroxy-2-((1-(naphthalen-2-yl)propan-2-yl)amino)ethyl)phenol]	100	–	100	100	100	100	100	–	–	efficacy of reducing the area of xenograft significantly	–
CC(Cc1cccc2ccccc12)NCC(O)c1cccc(O)c1 (stereo not drawn) [NT022, 3-(1-hydroxy-2-((1-(naphthalen-1-yl)propan-2-yl)amino)ethyl)phenol]	100	–	100	100	100	100	100	increase in caspase activity	–	–	–
